Measurements taken from PubChem BioAssay (NCI).
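96-well plates; 48 h exposure; 5 concentrations. Endpoints by linear interpolation between flanking doses. Not reached: highest tested concentration assigned. Definition used: TGI = concentration required for complete inhibition of growth.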

Key:
Test in all cases: inhibition of tumour cell growth, NCI panel, 48 h
KM12 colon = system: KM12 colon
EKVX NSCLC = system: EKVX NSCLC
NCI-H460 lung = system: NCI-H460 lung
SF-539 CNS = system: SF-539 CNS
MDA-MB-231 breast = system: MDA-MB-231 breast
OVCAR-4 ovarian = system: OVCAR-4 ovarian
SF-295 CNS = system: SF-295 CNS
SK-OV-3 ovarian = system: SK-OV-3 ovarian
RXF 393 renal = system: RXF 393 renal
DU-145 prostate = system: DU-145 prostate
HCT-15 colon = system: HCT-15 colon

| SMILES | TGI (KM12 colon) [µM] | TGI (EKVX NSCLC) [µM] | TGI (NCI-H460 lung) [µM] | TGI (SF-539 CNS) [µM] | TGI (MDA-MB-231 breast) [µM] | TGI (OVCAR-4 ovarian) [µM] | TGI (SF-295 CNS) [µM] | TGI (SK-OV-3 ovarian) [µM] | TGI (RXF 393 renal) [µM] | TGI (DU-145 prostate) [µM] | TGI (HCT-15 colon) [µM] |
| --- | --- | --- | --- | --- | --- | --- | --- | --- | --- | --- | --- |
| O=Cc1c2c(cc3c1CC1(C3)Cc3cc4c(c(C=O)c3C1)CCCC4)CCCC2 | > 31.6 | > 31.6 | > 100 | > 31.6 | > 31.6 | > 31.6 | > 31.6 | > 31.6 | > 31.6 | > 100 | > 31.6 |
| CC(NC(=O)Cc1ccc(OP(=O)(OCc2ccc([N+](=O)[O-])o2)N(C)CCCCCl)cc1)c1ccc(OCC2CCCCC2)c(C(N)=O)c1 (stereo not drawn) | 5.91 |  | 13.1 | 4.09 | 4.37 | 6.31 | 4.84 | 11 | 4.74 | 14.4 | 6.44 |
| CN(C)c1ccc(/C=C/C(=O)c2cc(C(C)(C)C)c(O)c(C(C)(C)C)c2)cc1 | > 25.7 | > 100 | 2.39 | 1.8 | 8.69 | > 100 | 5.33 | > 100 | 0.511 | 6.8 | > 100 |
| Oc1cc(O)c2c(c1)O[C@H](c1ccc(O)c(O)c1)[C@@H](O)C2 | > 100 | > 100 | > 100 | > 100 | > 100 | > 100 | > 100 |  |  | > 100 | > 100 |
| O=C1c2ccccc2N=C(c2cc3c(cc2Cl)Sc2nccn2S3(=O)=O)OS(=O)(=O)N1c1ccccc1 | > 100 | > 100 | > 100 | > 100 | 56.2 | > 100 | 42.4 | > 100 | 84.7 | > 100 | 50.8 |
| COc1ccccc1C1C2=C(COC2=O)Oc2cc3c(cc21)OCO3 (stereo not drawn) | > 100 | > 42.8 | > 100 | 5.32 | > 87.6 | > 100 | 12.6 | 45.9 | 6.13 | > 42.4 | > 84.6 |
| CC[C@H](C)[C@H](NC(=O)N(CCC#N)CCN(CCN(C(=O)N[C@@H](Cc1ccccc1)C(=O)OC)c1ccccc1)C(=O)N[C@H](C(=O)OC)C(C)C)C(=O)OC | 39.7 | 69.2 |  | 49.1 | 47.1 | 62 | 37.9 | 41.2 | 37.8 | 41.2 | 51.6 |
| c1ccc(CN2CCC(=NN3CCCCC3)CC2)cc1 | > 100 | > 100 | > 100 | > 100 | > 100 | > 100 | > 100 | > 100 | > 100 | > 100 | > 100 |
| COc1ccccc1N1CCN(CCCCNC(=O)c2ccc([N+](=O)[O-])o2)CC1 | 20.3 | 34.2 | 12.5 | 19.5 | 77.1 | 28.9 | 25.7 | 56.7 | 25.2 | 16.4 | 17.5 |
| Cc1ccc(C2(O)c3ccccc3C(=O)N(C)C2(O)c2ccc(C)cc2)cc1 (stereo not drawn) | > 100 | > 100 | 75.8 | > 100 | > 100 | 50.9 | > 100 | > 100 | > 100 | > 100 | > 100 |
| Cc1ccc(Nc2c3c(c(C#N)c4nc5ccccc5n24)CCCC3)cc1 | > 100 | > 100 | > 100 | 43.4 | 62.4 | > 100 | 44.1 | > 100 |  | > 100 | 82.4 |
| N=c1c2sc3nc4ccccc4n3c2ncn1Cc1ccccc1 | > 100 | > 100 |  | > 100 | > 100 | > 100 | > 100 | > 100 | > 100 | > 100 | > 100 |
| N/C(=N\N=C\c1cc2ccccc2s1)c1cnccn1 | > 100 | > 100 | > 100 | > 100 | > 100 | > 100 | > 100 | > 100 | > 100 | > 100 | > 100 |
| Cc1ccc(S(=O)(=O)N(CC(O)COc2ccccc2)c2c(F)c(F)cc(F)c2F)cc1 (stereo not drawn) | 70.6 | 92.3 | 35.3 | 36 | 50.8 | 52 | 62 | 47.2 |  | > 100 | 52 |
| CCOC(=O)Oc1cc2ccsc2c2c1c1ccccc1n2C(=O)OCC | > 100 | > 100 | 86.1 | > 100 | > 100 | > 100 | > 100 | 84.9 | 45.8 | > 100 | > 100 |
| O=C(Nc1ccccc1)c1cc2ccccc2c(N=Nc2cccc([N+](=O)[O-])c2)c1O | > 100 | > 100 | > 100 | > 100 | > 100 | > 100 | > 100 | > 100 | > 100 | > 100 | > 100 |
| C/C=C1\CC(C(=O)OCC)CCCCCCC1=O (stereo not drawn) | > 100 | > 100 |  | > 100 | > 100 | > 100 | > 100 | > 100 | > 100 | > 100 | > 100 |
| Cc1cc(OCc2nc(N)nc(N)c2-c2ccc(Cl)c(Cl)c2)ccc1[N+](=O)[O-] | 33.8 | 45 | 4.88 | 22.5 | 7.24 | 39.1 | 4.72 | > 63.3 | 21.6 | > 65 | 27.4 |
| Clc1ccc(Nc2ncco2)cc1Cl | > 10 | > 10 | > 10 | > 10 | > 10 | > 10 | > 10 | > 10 |  | > 10 | > 10 |
| CN1C(=O)c2ccccc2C(O)(c2ccccc2)C1(O)c1ccccc1 (stereo not drawn) | > 100 | > 100 | > 100 | > 100 | > 100 | > 100 | > 100 | > 100 | > 100 |  | > 100 |
| CC(=N/NC(=S)N1CCCCCC1)/C(C)=N\NC(=S)N1CCCCCC1 | 17.9 | 10.6 | 31.4 | > 100 | > 22.8 |  | 12.5 | 8.85 | 8.88 | 8.66 | 13.6 |

| SMILES | TGI (KM12 colon) [µM] | TGI (EKVX NSCLC) [µM] | TGI (NCI-H460 lung) [µM] | TGI (SF-539 CNS) [µM] | TGI (MDA-MB-231 breast) [µM] | TGI (OVCAR-4 ovarian) [µM] | TGI (SF-295 CNS) [µM] | TGI (SK-OV-3 ovarian) [µM] | TGI (RXF 393 renal) [µM] | TGI (DU-145 prostate) [µM] | TGI (HCT-15 colon) [µM] |
| --- | --- | --- | --- | --- | --- | --- | --- | --- | --- | --- | --- |
| C/C=C/CC(C(=O)OCC)(N(C)C(=O)OC(C)(C)C)S(=O)(=O)c1ccc(C)cc1 (stereo not drawn) | > 100 | > 100 |  | > 100 | > 100 | > 100 | > 100 |  | > 100 | > 100 | > 100 |
| CC(=O)Nc1ccc(NC(=O)CC(=O)Nc2ccc(NC(C)=O)cc2)cc1 | > 100 | > 100 | > 100 | > 100 | > 100 | > 100 | > 100 | 65.9 |  | > 100 | 61.9 |
| CN(C)CCCNC(=O)N/N=C/c1ccc(O)cc1 | > 100 |  | > 100 | > 100 | > 100 |  | > 100 | > 100 |  | > 100 | > 100 |
| CN1C(=O)N(C)C2(CCN(CC(CC3OCCO3)c3ccc(F)cc3)CC2)C1=O (stereo not drawn) |  | > 100 |  | > 100 | > 100 | > 100 | > 100 | > 100 | > 100 | > 100 | > 100 |
| CC(=O)O[C@@H]1[C@H](OC2CCCCC2(c2ccccc2)c2ccccc2)O[N+]([O-])=CC12CCCCC2 (stereo partly drawn) | 31.2 | 33.7 | 32.2 | 37.8 | 30 |  | 29.2 | 26.2 | 32.6 | 32 | 30.7 |
| CN(C(=O)[C@H](NC(=O)OCc1ccccc1)c1ccccc1)C1CCCCC1N1CCCC1 (stereo partly drawn) | > 100 | > 100 | > 100 |  | > 100 | > 100 | > 100 | > 100 | > 100 | > 100 | > 100 |
| COC(CNC(=O)CNC(=O)c1ccc(C(F)(F)F)cc1)OC | > 100 | > 100 | > 100 | > 100 | > 100 |  | > 100 | > 100 | > 100 | > 100 | > 100 |
| CCOC(=O)Cc1c(C)c2ccc(OC(C)=O)c(OC(C)=O)c2oc1=O | > 100 | > 100 |  |  | > 100 | 64 | > 100 | > 100 |  | > 100 | > 100 |
| CCOC(=O)NN(C(=O)OCC)c1ccc(N=Nc2ccc(OC)cc2)n1C | 76.9 | > 100 |  | 40.5 | 65.5 | > 100 | > 100 | > 100 | > 100 |  | 39.1 |
| CC(=O)N1C(C(=O)NN2CCOCC2)CSC1c1ccccc1 (stereo not drawn) | > 100 | > 100 | > 100 | > 100 | > 100 | > 100 | > 100 | > 100 |  | > 100 | > 100 |
| C=CCn1c(-c2cc(C(C)(C)C)c(O)c(C(C)(C)C)c2)cs/c1=N\C(P(=O)(O)O)P(=O)(O)O | > 100 | > 100 | > 100 | > 100 | > 100 | > 100 | > 100 | > 100 |  | > 100 | > 100 |
| COc1ccc(C=Nc2ccc(-c3nc4ccccc4s3)cc2)cc1OC | > 100 | > 100 | 67.6 | > 100 |  | > 100 | 55.5 | > 100 | 62.4 | > 100 | > 100 |
| O=C(O)c1cc2ccccc2c(Cc2c(O)c(C(=O)O)cc3ccccc23)c1O | > 100 | > 100 | > 100 |  | > 100 | > 100 | > 100 |  | > 100 | > 100 | > 100 |
| COc1cc(C2CC(C)(N3CCOCC3)Oc3cc4c(cc32)OCO4)cc(OC)c1OC (stereo not drawn) | > 100 | > 100 | > 100 |  | > 100 | 8.65 |  | > 80.5 |  | > 33.1 | > 100 |
| CCOC(=O)COc1cc(-c2ccccc2F)nc2cc3c(cc12)OCO3 | > 100 | > 100 |  | > 100 | > 100 |  | > 100 | > 100 | > 100 | > 100 | > 100 |
| c1ccc(-c2csc3c2-n2cccc2C3N2CCCC2)cc1 (stereo not drawn) | > 100 | > 100 | > 100 | > 100 | > 100 | > 100 | > 100 |  | > 100 | > 100 | > 100 |
| Cc1ccsc1/C=N/NC1=NCCN1 | > 100 | > 100 |  |  | > 100 | > 100 | > 100 | > 100 | > 100 | > 100 | > 100 |
| COC(=O)[C@H](CNC(=O)/C=C/c1ccc(OC(C)=O)c(OC(C)=O)c1)NC(=O)/C=C/c1ccc(OC(C)=O)c(OC(C)=O)c1 | > 100 | > 100 | > 100 | > 100 | > 100 | > 100 |  | > 100 | > 100 | > 100 | > 100 |
| COC(=O)C1OC(O[C@H]2CC[C@]3(C)[C@H]4CC=C5[C@@H]6CC(C)(C)CC[C@]6(C(=O)OC)CC[C@@]5(C)[C@]4(C)CC[C@H]3C2(C)C)C(O)C(O)C1O (stereo partly drawn) | 20.7 | 29 | 25.7 |  | 19.2 | 30.6 | 28.7 | 34.8 | 18.2 | 27.9 | 27.1 |
| NC(Cc1ccc(O)cn1)C(=O)NC(C(=O)O)c1ccccc1 (stereo not drawn) | > 100 | > 100 | > 100 | > 100 | > 100 | > 100 | > 100 |  | > 100 | > 100 | > 100 |
